Read-outs that look alike come from different tables or passages of the source.
What was measured:
[1] = biological target: TBK1 (Homo sapiens (Human), UniProt Q9UHD2); assay: TBK1 TR-FRET enzymatic assay;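 also: phosphorylation of a biotinylated Ser/Thr peptide by purified full-length recombinant TBK1, read by TR-FRET after 240 min at 25 °C, IC50 is the geometric mean of at least four runs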
[2] = biological target: IKKε (Homo sapiens (Human), UniProt Q14164); assay: IKKε TR-FRET enzymatic assay; format: biochemical; conditions: read-out: IKKe IC50
Sequence of IKKε (Q14164 whole entry): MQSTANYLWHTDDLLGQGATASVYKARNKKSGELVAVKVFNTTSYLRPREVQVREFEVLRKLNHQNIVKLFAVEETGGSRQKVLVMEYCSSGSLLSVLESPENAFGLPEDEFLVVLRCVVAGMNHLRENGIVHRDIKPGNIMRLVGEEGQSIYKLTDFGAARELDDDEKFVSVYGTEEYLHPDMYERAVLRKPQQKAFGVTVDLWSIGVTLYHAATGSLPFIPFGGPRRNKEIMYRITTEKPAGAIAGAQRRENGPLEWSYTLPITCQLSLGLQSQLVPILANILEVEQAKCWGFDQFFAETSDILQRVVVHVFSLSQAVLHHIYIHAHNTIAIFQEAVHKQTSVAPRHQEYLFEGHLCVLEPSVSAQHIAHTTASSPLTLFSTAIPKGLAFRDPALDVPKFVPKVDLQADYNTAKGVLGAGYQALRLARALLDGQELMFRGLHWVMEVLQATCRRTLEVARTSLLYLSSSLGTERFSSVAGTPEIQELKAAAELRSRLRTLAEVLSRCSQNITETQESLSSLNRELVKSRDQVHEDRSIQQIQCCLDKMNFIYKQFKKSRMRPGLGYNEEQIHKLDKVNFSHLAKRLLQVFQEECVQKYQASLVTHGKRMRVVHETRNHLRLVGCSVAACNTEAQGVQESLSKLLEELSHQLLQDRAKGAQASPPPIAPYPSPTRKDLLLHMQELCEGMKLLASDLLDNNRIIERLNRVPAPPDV

[3] = biological target: hJAK2 (Homo sapiens (Human), UniProt O60674); assay: hJAK2 LANCE TR-FRET enzymatic assay; format: biochemical; conditions: read-out: JAK2 IC50
Sequence of hJAK2 (O60674 whole entry): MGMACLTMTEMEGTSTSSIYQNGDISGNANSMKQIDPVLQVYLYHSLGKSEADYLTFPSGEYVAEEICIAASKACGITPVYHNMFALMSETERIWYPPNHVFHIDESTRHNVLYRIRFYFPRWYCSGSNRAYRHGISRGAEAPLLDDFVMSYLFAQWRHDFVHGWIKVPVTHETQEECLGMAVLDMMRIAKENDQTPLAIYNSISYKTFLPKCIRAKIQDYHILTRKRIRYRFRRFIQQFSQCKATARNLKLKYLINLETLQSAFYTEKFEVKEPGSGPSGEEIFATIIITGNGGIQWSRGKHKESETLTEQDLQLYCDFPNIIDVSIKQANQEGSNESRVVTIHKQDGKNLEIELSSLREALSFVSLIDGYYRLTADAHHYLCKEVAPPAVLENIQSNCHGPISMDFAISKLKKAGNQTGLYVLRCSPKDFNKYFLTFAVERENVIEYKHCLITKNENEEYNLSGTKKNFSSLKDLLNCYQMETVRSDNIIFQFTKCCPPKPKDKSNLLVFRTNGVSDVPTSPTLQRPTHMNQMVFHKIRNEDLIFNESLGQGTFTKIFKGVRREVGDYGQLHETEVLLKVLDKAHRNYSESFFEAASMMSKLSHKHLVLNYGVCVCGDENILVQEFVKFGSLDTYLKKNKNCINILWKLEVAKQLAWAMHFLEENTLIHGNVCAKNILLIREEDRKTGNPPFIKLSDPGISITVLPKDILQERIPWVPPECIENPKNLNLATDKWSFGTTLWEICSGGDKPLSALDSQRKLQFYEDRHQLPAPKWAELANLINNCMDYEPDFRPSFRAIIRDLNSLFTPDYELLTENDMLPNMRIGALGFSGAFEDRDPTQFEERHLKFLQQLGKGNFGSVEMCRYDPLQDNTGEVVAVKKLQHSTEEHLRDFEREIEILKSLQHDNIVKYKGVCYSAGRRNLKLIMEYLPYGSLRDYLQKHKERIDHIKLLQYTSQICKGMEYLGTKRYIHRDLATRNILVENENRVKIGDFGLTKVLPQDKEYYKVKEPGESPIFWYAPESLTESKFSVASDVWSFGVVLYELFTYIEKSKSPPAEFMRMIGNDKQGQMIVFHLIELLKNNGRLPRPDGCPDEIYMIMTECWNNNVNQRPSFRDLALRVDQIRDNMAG

[4] = TR-FRET, 2×Km ATP, geometric mean of minimum four determinations

Sequence of TBK1 (Q9UHD2 whole entry): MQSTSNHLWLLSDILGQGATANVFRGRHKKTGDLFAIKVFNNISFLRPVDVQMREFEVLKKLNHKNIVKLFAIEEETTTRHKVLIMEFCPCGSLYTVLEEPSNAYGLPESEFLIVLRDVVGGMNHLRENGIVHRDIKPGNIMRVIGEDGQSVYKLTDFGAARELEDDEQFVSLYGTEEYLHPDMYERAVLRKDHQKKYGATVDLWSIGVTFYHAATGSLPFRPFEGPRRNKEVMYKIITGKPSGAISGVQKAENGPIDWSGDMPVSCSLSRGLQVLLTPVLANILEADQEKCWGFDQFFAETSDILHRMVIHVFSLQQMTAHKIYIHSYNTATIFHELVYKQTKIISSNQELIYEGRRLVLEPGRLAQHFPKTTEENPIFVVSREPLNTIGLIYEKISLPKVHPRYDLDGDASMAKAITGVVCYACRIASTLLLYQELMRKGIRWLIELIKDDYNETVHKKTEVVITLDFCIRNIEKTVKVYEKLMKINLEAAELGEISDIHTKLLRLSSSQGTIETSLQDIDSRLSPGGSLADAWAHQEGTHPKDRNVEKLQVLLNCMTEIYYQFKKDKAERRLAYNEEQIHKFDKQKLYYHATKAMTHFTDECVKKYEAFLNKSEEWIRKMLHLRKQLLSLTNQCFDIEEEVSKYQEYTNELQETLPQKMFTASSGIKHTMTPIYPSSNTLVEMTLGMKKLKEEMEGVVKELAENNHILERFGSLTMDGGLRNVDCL

Row | SMILES | IC50 [1] | IC50 [2] | IC50 [3] | IC50 [2, 4]
1 | CC(C)n1cc(Nc2ncnc(-c3ccc(O[C@H]4CCN(C(=O)[C@@H](O)CO)C[C@H]4F)c(C#N)c3)n2)cn1 [Example 574, 2-(((3R,4S)-1-((S)-2,3-dihydroxypropanoyl)-3-fluoropiperidin-4-yl)oxy)-5-(4-((1-isopropyl-1H-pyrazol-4-yl)amino)-1,3,5-triazin-2-yl)benzonitrile] | 2 nM | – | 354 nM | 2 nM
2 | COc1cccc(Nc2ncnc(-c3ccc(OC4CCOCC4)c(C#N)c3)n2)c1 [Example 78, 5-(4-((3-methoxyphenyl)amino)-1,3,5-triazin-2-yl)-2-((tetrahydro-2H-pyran-4-yl)oxy)benzonitrile] | 6 nM | 17 nM | > 1000 nM | –
3 | Cc1n[nH]c(C(=O)N2CC[C@H](Oc3ccc(-c4ncnc(Nc5ccc(N6CCN(C7COC7)CC6)cc5)n4)cc3C#N)C(F)(F)C2)n1 [Example 452, (S)-2-((3,3-difluoro-1-(3-methyl-1H-1,2,4-triazole-5-carbonyl)piperidin-4-yl)oxy)-5-(4-((4-(4-(oxetan-3-yl)piperazin-1-yl)phenyl)amino)-1,3,5-triazin-2-yl)benzonitrile] | 3 nM | – | 23 nM | 1 nM
4 | N#Cc1cc(-c2ncnc(Nc3cccc(N4CCOCC4)c3)n2)ccc1O[C@@H]1CCNC1 [Example 82, (R)-5-(4-((3-morpholinophenyl)amino)-1,3,5-triazin-2-yl)-2-(pyrrolidin-3-yloxy)benzonitrile] | 94 nM | 53 nM | 641 nM | –
5 | COc1cc(Nc2ncnc(-c3ccc(OC4CCOCC4)c(C#N)c3)n2)ccc1C(=O)N1CCN(C2COC2)CC1 [Example 71, 5-(4-((3-methoxy-4-(4-(oxetan-3-yl)piperazine-1-carbonyl)phenyl)amino)-1,3,5-triazin-2-yl)-2-((tetrahydro-2H-pyran-4-yl)oxy)benzonitrile] | 2 nM | 10 nM | > 1000 nM | –
6 | C[C@H](O)C(=O)N1CC[C@H](Oc2ccc(-c3ncnc(Nc4ccc(N5CCN(C6COC6)[C@@H](CO)C5)cc4)n3)cc2C#N)[C@H](F)C1 [Example 468, 2-(((3R,4S)-3-fluoro-1-((S)-2-hydroxypropanoyl)piperidin-4-yl)oxy)-5-(4-((4-((R)-3-(hydroxymethyl)-4-(oxetan-3-yl)piperazin-1-yl)phenyl)amino)-1,3,5-triazin-2-yl)benzonitrile] | 3 nM | – | 486 nM | 2 nM
7 | CC(=O)N1CC[C@H](Oc2ccc(-c3ncnc(Nc4ccc(N5CCN(C6COC6)CC5)cc4)n3)cc2C#N)[C@H](F)C1 [Example 289, 2-(((3R,4S)-1-acetyl-3-fluoropiperidin-4-yl)oxy)-5-(4-((4-(4-(oxetan-3-yl)piperazin-1-yl)phenyl)amino)-1,3,5-triazin-2-yl)benzonitrile] | 4 nM | 5 nM | 444 nM | –
8 | CC(=O)Nc1ccc(Nc2ncnc(-c3ccc(O[C@H]4CCN(C(=O)[C@H](C)O)C[C@H]4F)c(C#N)c3)n2)cn1 [Example 540, N-(5-((4-(3-cyano-4-(((3R,4S)-3-fluoro-1-((S)-2-hydroxypropanoyl)piperidin-4-yl)oxy)phenyl)-1,3,5-triazin-2-yl)amino)pyridin-2-yl)acetamide] | 20 nM | – | ≥ 1000 nM | 21 nM
9 | N#Cc1cc(-c2ncnc(Nc3ccc(N4CCN(C5COC5)CC4)cc3)n2)ccc1N1CCC2(C1)OCCO2 [Example 208, 5-(4-((4-(4-(oxetan-3-yl)piperazin-1-yl)phenyl)amino)-1,3,5-triazin-2-yl)-2-(1,4-dioxa-7-azaspiro[4.4]nonan-7-yl)benzonitrile] | 64 nM | 283 nM | 330 nM | –
10 | C[C@H](O)C(=O)N1CCCC(Oc2ccc(-c3ncnc(Nc4ccc(N5CCN(C6COC6)CC5)cc4)n3)cc2C#N)CC1 (stereo partly drawn) [Example 359, 2-((1-((S)-2-hydroxypropanoyl)azepan-4-yl)oxy)-5-(4-((4-(4-(oxetan-3-yl)piperazin-1-yl)phenyl)amino)-1,3,5-triazin-2-yl)benzonitrile] | 17 nM | 37 nM | 995 nM | –
11 | N#Cc1cc(-c2ncnc(Nc3ccc(N4CCN(C5COC5)CC4)cc3)n2)cc(F)c1O[C@H]1CCN(C(=O)CCO)C[C@H]1F [Example 331, 3-fluoro-2-(((3R,4S)-3-fluoro-1-(3-hydroxypropanoyl)piperidin-4-yl)oxy)-5-(4-((4-(4-(oxetan-3-yl)piperazin-1-yl)phenyl)amino)-1,3,5-triazin-2-yl)benzonitrile] | 7 nM | 14 nM | 943 nM | –
12 | N#Cc1cc(-c2ncnc(Nc3ccc(N4CCN(C5COC5)CC4)cc3)n2)ccc1OC1CNCC1(F)F (stereo not drawn) [Example 194, 2-((4,4-difluoropyrrolidin-3-yl)oxy)-5-(4-((4-(4-(oxetan-3-yl)piperazin-1-yl)phenyl)amino)-1,3,5-triazin-2-yl)benzonitrile] | 6 nM | 29 nM | 308 nM | –

Further compounds by falling IC50 [1], results first:

Row | IC50 [1] | IC50 [2] | IC50 [3] | IC50 [2, 4] | SMILES
13 | 12 nM | 43 nM | 301 nM | – | N#Cc1cc(-c2ncnc(Nc3ccc(N4CCN(C5COC5)CC4)cc3)n2)ccc1N1CCC2(CCO2)CC1 [Example 214, 5-(4-((4-(4-(oxetan-3-yl)piperazin-1-yl)phenyl)amino)-1,3,5-triazin-2-yl)-2-(1-oxa-7-azaspiro[3.5]nonan-7-yl)benzonitrile]
14 | 5 nM | 8 nM | > 1000 nM | – | CS(=O)(=O)c1ccc(Nc2ncnc(-c3ccc(OC4CCN(C(=O)CO)CC4)c(C#N)c3)n2)cc1 [Example 57, 2-((1-(2-hydroxyacetyl)piperidin-4-yl)oxy)-5-(4-((4-(methylsulfonyl)phenyl)amino)-1,3,5-triazin-2-yl)benzonitrile]
15 | 4 nM | 7 nM | 572 nM | – | N#Cc1cc(-c2ncnc(Nc3ccc(N4CCN(C5COC5)CC4)cc3)n2)ccc1O[C@H]1CCN(C(=O)c2ccncn2)C[C@H]1F [Example 337, 2-(((3R,4S)-3-fluoro-1-(pyrimidine-4-carbonyl)piperidin-4-yl)oxy)-5-(4-((4-(4-(oxetan-3-yl)piperazin-1-yl)phenyl)amino)-1,3,5-triazin-2-yl)benzonitrile]
16 | 4 nM | 2 nM | 233 nM | – | CC(=O)N1CC[C@H](Oc2ccc(-c3ncnc(Nc4ccc(N5CCO[C@@H](CO)C5)cc4)n3)cc2C#N)C(F)(F)C1 [Example 230, 2-(((5)-1-acetyl-3,3-difluoropiperidin-4-yl)oxy)-5-(4-((4-((R)-2-(hydroxymethyl)morpholino)phenyl)amino)-1,3,5-triazin-2-yl)benzonitrile]
17 | 3 nM | 15 nM | ≥ 1000 nM | – | N#Cc1cc(-c2ncnc(Nc3ccc(N4CCN(C5COC5)CC4)cc3)n2)ccc1OC1CCN(C(=O)c2ccc[nH]2)CC1 [Example 190, 2-((1-(1H-pyrrole-2-carbonyl)piperidin-4-yl)oxy)-5-(4-((4-(4-(oxetan-3-yl)piperazin-1-yl)phenyl)amino)-1,3,5-triazin-2-yl)benzonitrile]
18 | 2 nM | – | 18 nM | 1 nM | COc1cc(Nc2ncnc(-c3ccc(O[C@H]4CCN(C(=O)CO)CC4(F)F)c(C#N)c3)n2)ccc1N1CCN(C2COC2)CC1 [Example 560, (S)-2-((3,3-difluoro-1-(2-hydroxyacetyl)piperidin-4-yl)oxy)-5-(4-((3-methoxy-4-(4-(oxetan-3-yl)piperazin-1-yl)phenyl)amino)-1,3,5-triazin-2-yl)benzonitrile]

From patent US10040781B2, “Tank-binding kinase inhibitor compounds” (Gilead Sciences, Inc., priority 2014, dated 2018)
